Reference: US12252470B2, “Lipids and nanoparticle compositions thereof” (Generation Bio Co., priority 2020, dated 2025)

Assays:
[1] = system: ceDNA-luciferase (ceDNA-luc); experiment: In vivo ceDNA-luc expression by IVIS imaging after IV dosing of LNPs; parameters: species or system CD-1 mice; details: for luciferase expression and/or activity, rank among lipids tested: Studies A and B; for luciferase expressions and/or activity compared to positive control SS-OP ceDNA LNPs: Study A, vs LNPs 1, 2 and 7-12 (SS-OP), FIG. 1; for luciferase expressions and/or activity compared to positive control SS-OP ceDNA LNPs / luciferase activity compared to positive control SS-OP ceDNA LNP / luciferase expression and/or activity compared to positive control SS-OP ceDNA LNP / luciferase expressions and/or activity compared to SS-OP LNP: Day 4; for luciferase expressions and/or activity compared to positive control SS-OP ceDNA LNPs / luciferase activity compared to positive control SS-OP ceDNA LNP: 0.25 mg/kg IV once on Day 0; for luciferase activity compared to positive control SS-OP ceDNA LNP: Study B, vs LNP 13 (SS-OP), FIG. 2; for luciferase expression and/or activity compared to positive control SS-OP ceDNA LNP: Study C, at both 25 mg/kg and 1 mg/kg, vs LNP 19 (SS-OP), FIG. 3; for luciferase expressions and/or activity compared to SS-OP LNP: 0.25 mg/kg IV
Protocol: Lipid nanoparticles (LNP) were prepared at a total lipid to ceDNA weight ratio of approximately 10:1 to 30:1. Briefly, an ionizable lipid of the present invention, a non-cationic lipid (e.g., distearoylphosphatidylcholine (DSPC)), a component to provide membrane integrity (such as a sterol, e.g., cholesterol) and a conjugated lipid molecule (such as a PEG-lipid, e.g., 1-(monomethoxy-polyethyleneglycol)-2,3-dimyristoylglycerol, with an average PEG molecular weight of 2000 (“PEG-DMG”)), were solubilized in alcohol (e.g., ethanol) at a molar ratio of, for example, 50:10:37:3 or 20:40:38:2. The ceDNA was diluted to a desired concentration in buffer solution. For example, the ceDNA were diluted to a concentration of 0.1 mg/ml to 0.25 mg/ml in a buffer solution comprising sodium acetate, sodium acetate and magnesium chloride, citrate, malic acid, or malic acid and sodium chloride. In one example, the ceDNA was diluted to 0.2 mg/mL in 10 to 50 mM citrate buffer, pH 4. The alcoholic lipid solution was mixed with ceDNA aqueous solution using, for example, syringe pumps or an impinging jet mixer, at a ratio of about 1:5 to 1:3 (vol/vol) with total flow rates above 10 ml/min. In one example, the alcoholic lipid solution was mixed with ceDNA aqueous at a ratio of about 1:3 (vol/vol) with a flow rate of 12 ml/min. The alcohol was removed, and the buffer was replaced with PBS by dialysis. Alternatively, the buffers were replaced with PBS using centrifugal tubes. Alcohol removal and simultaneous buffer exchange were accomplished by, for example, dialysis or tangential flow filtration. The obtained lipid nanoparticles are filtered through a 0.2 µm pore sterile filter.
In one study, lipid nanoparticles comprising exemplary ceDNAs were prepared using a lipid solution comprising SS-OP, DSPC, Cholesterol and DMG-PEG2000 (mol ratio 50:10:37:3) as control. In some examples, a tissue target moiety like N-Acetylgalactosamine (GalNAc) was included. A GalNAc moiety such as tri-antennary GalNAc (GalNAc3) or tetra-antennary GalNAc (GalNAc4) can be synthesized as known in the art (see, WO2017/084987 and WO2013/166121) and chemically conjugated to lipid or PEG as well-known in the art (see, Resen et al., J. Biol. Chem. (2001) “Determination of the Upper Size Limit for Uptake and Processing of Ligands by the Asialoglycoprotein Receptor on Hepatocytes in Vitro and in Vivo” […]). Aqueous solutions of ceDNA in buffered solutions were prepared. The lipid solution and the ceDNA solution were mixed using an in-house procedure on a NanoAssembler at a total flow rate of 12 mL/min at a lipid to ceDNA ratio of 1:3 (v/v).
(§1) Species (number, sex, age): CD-1 mice (N=65 and 5 spare, male, about 4 weeks of age at arrival).
(§2) Dose Administration: Test articles (LNPs: ceDNA-Luc) were dosed at 5 mL/kg on Day 0 for Groups 1-38 by intravenous administration to lateral tail vein.
• Luciferin stock powder was stored at nominally −20° C. • Stored formulated luciferin in 1 mL aliquots at 2-8° C. protect from light. • Formulated luciferin was stable for up to 3 weeks at 2-8° C., protected from light and stable for about 12 hrs at room temperature (RT). • Dissolved luciferin in PBS to a target concentration of 60 mg/mL at a sufficient volume and adjusted to pH=7.4 with 5-M NaOH (about 0.5 μl/mg luciferin) and HCl (about 0.5 μL/mg luciferin) as needed. • Prepared the appropriate amount according to protocol including at least a about 50% overage. […]

[2] = Tolerability in mice as measured by change in body weight; type: in vivo; details: body weight at Day 1, 0.25 mg/kg IV
Protocol: as §1
Clinical Observations: Clinical observations were performed about 1, about 5 to about 6 and about 24 hours post the Day 0 Test Material dose. Additional observations were made per exception. Body weights for all animals, as applicable, were recorded on Days 0, 1, 2, 3, 4 & 7 (prior to euthanasia). Additional body weights were recorded as needed.
as §2

[3] = Study D, control Ionizable Lipid A (LNP 22), FIG. 4B
[4] = Study D, vs LNP 23 (SS-OP), FIG. 4A
[5] = Study E, outlier data point in LNP 30 excepted, FIG. 5B
[6] = Study E, vs LNP 27 (SS-OP), FIG. 5A

| Compound | luciferase expressions and/or activity compared to positive control SS-OP ceDNA LNPs [1] | luciferase activity compared to positive control SS-OP ceDNA LNP [1] | tolerability (change in body weight) [2, 3] | luciferase expressions and/or activity compared to SS-OP LNP [1, 4] | tolerability (change in body weight) [2, 5] | luciferase expressions and/or activity compared to SS-OP LNP [1, 6] | also measured |
| --- | --- | --- | --- | --- | --- | --- | --- |
| CCCCCCCCCOC(=O)CCCCCCCC(=O)Oc1ccc(CC(=O)OCCC2CCN(CCSSCCN3CCC(CCOC(=O)Cc4ccc(OC(=O)CCCCCCCC(=O)OC(CCCCCCCC)CCCCCCCC)cc4)CC3)CC2)cc1 [Lipid 3, 1-(heptadecan-9-yl) 9-(4-(2-(2-(1-(2-((2-(4-(2-(2-(4-((9-(nonyloxy)-9-oxononanoyl)oxy)phenyl)acetoxy)ethyl)piperidin-1-yl)ethyl)disulfaneyl)ethyl)piperidin-4-yl)ethoxy)-2-oxoethyl)phenyl) nonanedioate] | equivalent or higher | equivalent or higher |  |  |  |  | luciferase expression and/or activity, rank among lipids tested [1]: highest; luciferase expression and/or activity compared to positive control SS-OP ceDNA LNP [1]: higher |
| CCCCCCCC/C=C\CCCCCCCC(=O)Oc1ccc(CC(=O)OCCC2CCN(CCSSCCN3CCC(CCOC(=O)Cc4ccc(OC(=O)CCCCCCCC(=O)OC(CCCCCC)CCCCCCCC)cc4)CC3)CC2)cc1 (stereo not drawn) [Lipid 8, 1-(4-(2-(2-(1-(2-((2-(4-(2-(2-(4-(oleoyloxy)phenyl)acetoxy)ethyl)piperidin-1-yl)ethyl)disulfaneyl)ethyl)piperidin-4-yl)ethoxy)-2-oxoethyl)phenyl) 9-(pentadecan-7-yl) nonanedioate] |  |  | did not cause changes in body weight | equivalent or higher |  |  |  |
| CCCCCCCCCOC(=O)CCCCCCCC(=O)Oc1ccc(CC(=O)OCCC2CCN(CCSSCCN3CCC(CCOC(=O)Cc4ccc(OC(=O)CCCCCCCC(=O)OC(CC)CCCCCCCC)cc4)CC3)CC2)cc1 (stereo not drawn) [Lipid 9, 1-nonyl 9-(4-(2-oxo-2-(2-(1-(2-((2-(4-(2-(2-(4-((9-oxo-9-(undecan-3-yloxy)nonanoyl)oxy)phenyl)acetoxy)ethyl)piperidin-1-yl)ethyl)disulfaneyl)ethyl)piperidin-4-yl)ethoxy)ethyl)phenyl) nonanedioate] |  |  |  |  | did not cause significant changes in body weight | equivalent or higher |  |
| CCCCCCCCCOC(=O)CCCCCCCC(=O)Oc1ccc(CC(=O)OCCC2CCN(CCSSCCN3CCC(CCOC(=O)Cc4ccc(OC(=O)CCCCCCCC(=O)OC(CCCCCC)CCCCCCCC)cc4)CC3)CC2)cc1 (stereo not drawn) [Lipid 11, 1-nonyl 9-(4-(2-oxo-2-(2-(1-(2-((2-(4-(2-(2-(4-((9-oxo-9-(pentadecan-7-yloxy)nonanoyl)oxy)phenyl)acetoxy)ethyl)piperidin-1-yl)ethyl)disulfaneyl)ethyl)piperidin-4-yl)ethoxy)ethyl)phenyl) nonanedioate] |  |  |  |  | did not cause significant changes in body weight | equivalent or higher |  |
| CCCCCCCC/C=C\CCCCCCCC(=O)Oc1ccc(CC(=O)OCCC2CCN(CCSSCCN3CCC(CCOC(=O)Cc4ccc(OC(=O)CCCCCCCC(=O)OC(CCCC)CCCCCCCC)cc4)CC3)CC2)cc1 (stereo not drawn) [Lipid 7, 1-(4-(2-(2-(1-(2-((2-(4-(2-(2-(4-(oleoyloxy)phenyl)acetoxy)ethyl)piperidin-1-yl)ethyl)disulfaneyl)ethyl)piperidin-4-yl)ethoxy)-2-oxoethyl)phenyl) 9-(tridecan-5-yl) nonanedioate] |  |  | did not cause changes in body weight | equivalent or higher |  |  |  |
| CCCCCCCCCOC(=O)CCCCCCCC(=O)Oc1ccc(CC(=O)OCCC2CCN(CCSSCCN3CCC(CCOC(=O)Cc4ccc(OC(=O)CCCCCCCC(=O)OC(CCCC)CCCCCCCC)cc4)CC3)CC2)cc1 (stereo not drawn) [Lipid 10, 1-nonyl 9-(4-(2-oxo-2-(2-(1-(2-((2-(4-(2-(2-(4-((9-oxo-9-(tridecan-5-yloxy)nonanoyl)oxy)phenyl)acetoxy)ethyl)piperidin-1-yl)ethyl)disulfaneyl)ethyl)piperidin-4-yl)ethoxy)ethyl)phenyl) nonanedioate] |  |  |  |  | did not cause significant changes in body weight | equivalent or higher |  |
| CCCCCCCC/C=C\CCCCCCCC(=O)Oc1ccc(CC(=O)OCCC2CCN(CCSSCCN3CCC(CCOC(=O)Cc4ccc(OC(=O)CCCCCCCC(=O)OC(CCCCCCCC)CCCCCCCC)cc4)CC3)CC2)cc1 [Lipid 1, 1-(heptadecan-9-yl) 9-(4-(2-(2-(1-(2-((2-(4-(2-(2-(4-(oleoyloxy)phenyl)acetoxy)ethyl)piperidin-1-yl)ethyl)disulfaneyl)ethyl)piperidin-4-yl)ethoxy)-2-oxoethyl)phenyl) nonanedioate] | equivalent or higher | equivalent or higher |  |  |  |  | luciferase expression and/or activity, rank among lipids tested [1]: highest; luciferase expression and/or activity compared to positive control SS-OP ceDNA LNP [1]: higher |
| CCCCCCCCCOC(=O)CCCC(=O)Oc1ccc(CC(=O)OCCC2CCN(CCSSCCN3CCC(CCOC(=O)Cc4ccc(OC(=O)CCCCCCCC(=O)OC(CCCCCCCC)CCCCCCCC)cc4)CC3)CC2)cc1 [Lipid 2, 1-(heptadecan-9-yl) 9-(4-(2-(2-(1-(2-((2-(4-(2-(2-(4-((5-(nonyloxy)-5-oxopentanoyl)oxy)phenyl)acetoxy)ethyl)piperidin-1-yl)ethyl)disulfaneyl)ethyl)piperidin-4-yl)ethoxy)-2-oxoethyl)phenyl) nonanedioate] | equivalent or higher | equivalent or higher |  |  |  |  |  |
| CCCCCCCC/C=C\CCCCCCCC(=O)Oc1ccc(CC(=O)OCCC2CCN(CCSSCCN3CCC(CCOC(=O)Cc4ccc(OC(=O)CCCCCCCC(=O)OC(CC)CCCCCCCC)cc4)CC3)CC2)cc1 (stereo not drawn) [Lipid 6, 1-(4-(2-(2-(1-(2-((2-(4-(2-(2-(4-(oleoyloxy)phenyl)acetoxy)ethyl)piperidin-1-yl)ethyl)disulfaneyl)ethyl)piperidin-4-yl)ethoxy)-2-oxoethyl)phenyl) 9-(undecan-3-yl) nonanedioate] |  |  | did not cause changes in body weight | equivalent or higher |  |  |  |
| CCCCCCCCC(CCCCCCCC)OC(=O)CCCCCCCC(=O)Oc1ccc(CC(=O)OCCC2CCN(CCSSCCN3CCC(CCOC(=O)Cc4ccc(OC(=O)CCCCCCCC(=O)OC(CCCCCCCC)CCCCCCCC)cc4)CC3)CC2)cc1 [Lipid 5, O′1,O1-((((((disulfanediylbis(ethane-2,1-diyl))bis(piperidine-1,4-diyl))bis(ethane-2,1-diyl))bis(oxy))bis(2-oxoethane-2,1-diyl))bis(4,1-phenylene)) 9,9′-di(heptadecan-9-yl) di(nonanedioate)] | equivalent or higher | equivalent or higher |  |  |  |  |  |
